{"source": "BindingDB's records for doi:10.1073/pnas.90.8.3452", "about": "(The Scripps Research Institute, 1993)", "key": {"[1]": {"target": "5-hydroxytryptamine receptor 5A (Rattus norvegicus, UniProt P35364)", "sequence (P35364 whole entry)": "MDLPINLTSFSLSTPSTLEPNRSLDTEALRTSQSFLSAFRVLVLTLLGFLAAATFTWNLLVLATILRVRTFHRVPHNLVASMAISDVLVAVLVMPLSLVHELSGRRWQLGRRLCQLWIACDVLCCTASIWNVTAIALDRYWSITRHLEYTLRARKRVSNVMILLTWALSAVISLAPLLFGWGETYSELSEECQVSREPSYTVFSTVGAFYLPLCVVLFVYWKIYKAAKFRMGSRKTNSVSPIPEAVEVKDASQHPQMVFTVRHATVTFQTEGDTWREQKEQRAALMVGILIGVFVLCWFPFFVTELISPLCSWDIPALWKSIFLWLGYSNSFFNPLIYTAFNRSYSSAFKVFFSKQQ"}, "[2]": {"target": "5-hydroxytryptamine receptor 5B (Rattus norvegicus, UniProt P35365)", "sequence (P35365 whole entry)": "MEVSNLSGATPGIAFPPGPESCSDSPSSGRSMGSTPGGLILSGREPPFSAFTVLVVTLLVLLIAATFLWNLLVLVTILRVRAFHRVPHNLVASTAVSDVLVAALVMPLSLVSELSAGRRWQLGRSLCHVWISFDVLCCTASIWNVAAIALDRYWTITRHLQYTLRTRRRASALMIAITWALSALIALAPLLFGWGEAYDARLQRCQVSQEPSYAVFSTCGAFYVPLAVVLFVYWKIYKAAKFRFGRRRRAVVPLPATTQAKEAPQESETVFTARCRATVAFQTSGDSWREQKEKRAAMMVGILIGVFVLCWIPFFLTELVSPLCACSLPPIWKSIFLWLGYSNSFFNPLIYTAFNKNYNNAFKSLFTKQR"}}}
{"compound": "CCCN(CCC)C1CCc2cccc(O)c2C1", "note": "(stereo unspecified)", "values": [{"measurement": "Ki", "setting": "[1]", "result": 1, "unit": "µM"}, {"measurement": "Ki", "setting": "[2]", "result": 1, "unit": "µM"}]}
{"compound": "CC[C@@H](CO)NC(=O)[C@@H]1C=C2c3cccc4c3c(cn4C)C[C@H]2N(C)C1", "values": [{"measurement": "Ki", "setting": "[1]", "result": 1, "unit": "µM"}, {"measurement": "Ki", "setting": "[2]", "result": 0.196, "unit": "µM"}]}
{"compound": "NCCc1ccc(O)c(O)c1", "values": [{"measurement": "Ki", "setting": "[1]", "result": 1, "unit": "µM"}, {"measurement": "Ki", "setting": "[2]", "result": 1, "unit": "µM"}]}
{"compound": "COc1ccc2[nH]cc(CCNC(C)=O)c2c1", "values": [{"measurement": "Ki", "setting": "[1]", "result": 1, "unit": "µM"}, {"measurement": "Ki", "setting": "[2]", "result": 1, "unit": "µM"}]}
{"compound": "CN1C[C@@H](NS(=O)(=O)N(C)C)C[C@@H]2c3cccc4c3c(cn4C)C[C@H]21", "note": "[MESULERGINE]", "values": [{"measurement": "Ki", "setting": "[1]", "result": 1, "unit": "µM"}, {"measurement": "Ki", "setting": "[2]", "result": 1, "unit": "µM"}]}
{"compound": "CN1C[C@H](CNC(=O)OCc2ccccc2)C[C@@H]2c3cccc4c3c(cn4C)C[C@H]21", "note": "[METERGOLINE]", "values": [{"measurement": "Ki", "setting": "[1]", "result": 1, "unit": "µM"}, {"measurement": "Ki", "setting": "[2]", "result": 1, "unit": "µM"}]}
{"compound": "NCC(O)c1ccc(O)c(O)c1", "note": "(stereo not drawn) [Noradrenaline,(+)]", "values": [{"measurement": "Ki", "setting": "[1]", "result": 1, "unit": "µM"}, {"measurement": "Ki", "setting": "[2]", "result": 1, "unit": "µM"}]}
{"compound": "COc1cc(N)c(Cl)cc1C(=O)NC1CN2CCC1CC2", "note": "(stereo unspecified) [ZACOPRIDE,R]", "values": [{"measurement": "Ki", "setting": "[1]", "result": 1, "unit": "µM"}, {"measurement": "Ki", "setting": "[2]", "result": 1, "unit": "µM"}]}
{"compound": "NCCc1c[nH]c2ccc(O)cc12", "note": "[[3H]-5-HT]", "values": [{"measurement": "Ki", "setting": "[1]", "result": 1.33, "unit": "µM"}]}
{"compound": "NCCc1c[nH]c2ccc(C(N)=O)cc12", "note": "[[3H]-5-carboxamidotryptamine]", "values": [{"measurement": "Ki", "setting": "[2]", "result": 0.0126, "unit": "µM"}]}
{"compound": "COc1cc(CC(C)N)c(OC)cc1I", "note": "(stereo unspecified) [[125I]2,5-dimethoxy-4-iodoamphetamine]", "values": [{"measurement": "Ki", "setting": "[1]", "result": 1, "unit": "µM"}, {"measurement": "Ki", "setting": "[2]", "result": 1, "unit": "µM"}]}
{"compound": "CSc1ccc2c(c1)C(N1CCN(C)CC1)Cc1ccccc1S2", "note": "(stereo unspecified) [methanesulfonic acid;1-methyl-4-(3-methylsulfanyl-5,6-dihydrobenzo[b][1]benzothiepin-5-yl)piperazine]", "values": [{"measurement": "Ki", "setting": "[1]", "result": 0.145, "unit": "µM"}]}
